Data published in US4350754A, “Blocked development restrainers” (Polaroid Corporation, priority 1981, dated 1982).

Assay: Release kinetics in solution: t1/2, time for one half of the molecule to cleave and release the azole moiety
Type: physicochemical
Text: The release kinetics in solution of the compounds of the invention vary over a wide range.
*rate of hydrolysis approximates rate of release
**measured in 50% ethanol/water solution
***solution was 0.022N in KOH

[1] = 1×10^-4 molar in 30% acetonitrile/0.25 N aqueous KOH, 22°±0.1° C., release of azole moiety

t1/2 [1] [s] | SMILES | also measured
4.0 | Cn1c(=O)[nH]cc(CSc2nnnn2-c2ccc(O)cc2)c1=O [Compound XI] | 
77.8 | O=c1[nH]cc(CSc2ncnc3[nH]cnc23)c(=O)[nH]1 [Compound XVII] | 
0.87 | CC(=NO)c1ccc(-n2nnnc2SCc2c[nH]c(=O)n(C)c2=O)cc1 [Compound XXVI] | 
911 | CC(=O)n1c(=O)[nH]cc(Cn2nnn(-c3ccccc3)c2=S)c1=O [Compound XXXI] | 
0.81 | Cn1c(=O)[nH]cc(CSc2nnnn2-c2ccccc2)c1=O [II] | 
31.2 | O=C(c1ccccc1)n1c(=O)[nH]cc(CSc2nnnn2-c2ccccc2)c1=O [XII] | 

More lines, now with the values behind:

SMILES | t1/2 [1] [s] | also measured
Cc1ccc(Nc2nnc([Se]Cc3c[nH]c(=O)[nH]c3=O)[se]2)cc1 [Compound XIX] |  | t1/2 (measured in 50% ethanol/water solution, 22° C.): 48.8 s
O=c1[nH]cc(CSc2ncccn2)c(=O)[nH]1 [Compound XVIII] | 35.9 | 
CC(=O)Oc1ccc(-n2nnnc2SCc2c[nH]c(=O)[nH]c2=O)cc1 [Compound XX] |  | t1/2 (hydrolysis) (hydrolysis, 30% acetonitrile/0.25 N aqueous KOH, 22° C.): 2.5 s
O=c1[nH]cc(Cn2nc(-c3ccccc3)oc2=S)c(=O)[nH]1 [Compound X] | 1080 | 
Cn1c(=O)[nH]cc(Cn2nnn(-c3ccccc3)c2=S)c1=O [VIII] | 1512 | 
O=c1[nH]cc(Cn2nnn(-c3ccccc3)c2=S)c(=O)[nH]1 [VII] | 900 | 
CC(=O)Oc1ccc(-n2nnnc2SCc2c[nH]c(=O)n(C)c2=O)cc1 [V] |  | t1/2 (30% acetonitrile/0.25 N aqueous KOH, 22° C., rate of hydrolysis approximates rate of release): 1.8 to 4.0 s
O=c1[nH]cc(Cn2nc(-c3cccs3)oc2=S)c(=O)[nH]1 [XIV] | 4320 | 
